Measured values taken from patent US12077503B2, “Substituted cyclic amides and their use as herbicides” (FMC CORPORATION, priority 2015, dated 2024).

Columns and labels:
Format in all cases: in vivo
[1] = system: Kochia (Kochia scoparia); test: Test A preemergence; conditions: Bassia scoparia, pre-emergence, 240 h, Preemergence
How it was run: (§1)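 Ratings of 0 (no effect) to 100 (complete control) come from visual comparison with untreated controls roughly 10 d after treatment. Test chemicals, formulated in a non-phytotoxic solvent mixture with surfactant, were applied either as a preemergence directed soil spray on seeded soil or postemergence to one- to two-leaf plants 2 to 10 cm tall.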

[2] = system: barnyardgrass (Echinochloa crus-galli); test: Test A preemergence; conditions: Echinochloa crus-galli, pre-emergence, 240 h, Preemergence
How it was run: as §1

[3] = system: giant foxtail (Setaria faberii); test: Test A preemergence; conditions: Setaria faberi, pre-emergence, 240 h, Preemergence
How it was run: as §1

[4] = system: pigweed (Amaranthus retroflexus); test: Test A preemergence; conditions: Amaranthus retroflexus, pre-emergence, 240 h, Preemergence
[5] = system: ragweed (common ragweed, Ambrosia elatior); test: Test A preemergence; conditions: Ambrosia artemisiifolia, pre-emergence, 240 h, Preemergence
How it was run: as §1

[6] = system: ryegrass, Italian (Italian ryegrass, Lolium multiflorum); test: Test A preemergence; conditions: Lolium multiflorum, pre-emergence, 240 h, Preemergence
How it was run: as §1

[7] = system: Galium (catchweed bedstraw, Galium aparine); test: Test A postemergence; conditions: Galium, post-emergence, 240 h, Postemergence, read-out: Galium plant response rating (0 to 100 scale)
How it was run: as §1

[8] = system: Kochia (Kochia scoparia); test: Test A postemergence; conditions: Bassia scoparia, post-emergence, 240 h, Postemergence, read-out: Kochia plant response rating (0 to 100 scale)
How it was run: as §1

[9] = system: barnyardgrass (Echinochloa crus-galli); test: Test A postemergence; conditions: Echinochloa crus-galli, post-emergence, 240 h, Postemergence
How it was run: as §1

[10] = system: blackgrass (Alopecurus myosuroides); test: Test A postemergence; conditions: Alopecurus myosuroides, post-emergence, 240 h, Postemergence, read-out: Blackgrass plant response rating (0 to 100 scale)
How it was run: as §1

[11] = system: corn (Zea mays); test: Test A postemergence; conditions: Zea mays, post-emergence, 240 h, Postemergence, read-out: Corn plant response rating (0 to 100 scale)
How it was run: as §1

[12] = system: giant foxtail (Setaria faberii); test: Test A postemergence; conditions: Setaria faberi, post-emergence, 240 h, Postemergence, read-out: Foxtail, Giant plant response rating (0 to 100 scale)
How it was run: as §1

[13] = system: pigweed (Amaranthus retroflexus); test: Test A postemergence; conditions: Amaranthus retroflexus, post-emergence, 240 h, Postemergence, read-out: Pigweed plant response rating (0 to 100 scale)
How it was run: as §1

[14] = system: ragweed (common ragweed, Ambrosia elatior); test: Test A postemergence; conditions: Ambrosia artemisiifolia, post-emergence, 240 h, Postemergence, read-out: Ragweed plant response rating (0 to 100 scale)
How it was run: as §1

[15] = system: ryegrass, Italian (Italian ryegrass, Lolium multiflorum); test: Test A postemergence; conditions: Lolium multiflorum, post-emergence, 240 h, Postemergence, read-out: Ryegrass, Italian plant response rating (0 to 100 scale)
How it was run: as §1

[16] = system: wheat (Triticum aestivum); test: Test A postemergence; conditions: Triticum aestivum, post-emergence, 240 h, Postemergence, read-out: Wheat plant response rating (0 to 100 scale)
How it was run: as §1

[17] = system: barnyardgrass (Echinochloa crus-galli); test: Test B flooded paddy test; conditions: Echinochloa crus-galli, 360 h, Flood, 250 g ai/ha; visually evaluated after 13 to 15 d; read-out: Plant response rating, Barnyardgrass (0 to 100 scale where 0 is no effect and 100 is complete control)
How it was run: (§2)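 Rating scale 0–100 (visual, vs untreated controls) after a 13–15 d greenhouse period; application to the flood layer, 3 cm above soil and maintained; plants at 2-leaf stage when treated.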

[18] = system: ducksalad (Heteranthera limosa); test: Test B flooded paddy test; conditions: Heteranthera limosa, 360 h, Flood, 250 g ai/ha; visually evaluated after 13 to 15 d; read-out: Plant response rating, Ducksalad (0 to 100 scale where 0 is no effect and 100 is complete control)
How it was run: as §2

[19] = system: rice (Oryra sativa); test: Test B flooded paddy test; conditions: Oryza sativa, 360 h, Flood, 250 g ai/ha; visually evaluated after 13 to 15 d; read-out: Plant response rating, Rice (0 to 100 scale where 0 is no effect and 100 is complete control)
How it was run: as §2

[20] = system: sedge, umbrella (small-flower umbrella sedge, Cyperus difformis); test: Test B flooded paddy test; conditions: Cyperus difformis, 360 h, Flood, 250 g ai/ha; visually evaluated after 13 to 15 d; read-out: Plant response rating, Sedge, Umbrella (0 to 100 scale where 0 is no effect and 100 is complete control)
How it was run: as §2

[21] = 125 g ai/ha, visual rating about 10 d after treatment
[22] = 31 g ai/ha, 0 is no effect, 100 is complete control

COc1c([C@H]2CN(C)C(=O)[C@@H]2C(=O)Nc2cccc(F)c2F)cccc1C(F)(F)F [Compound 1339]
pest or weed control at 31 g/ha ([1]; 31 g ai/ha, 0 to 100 scale where 0 is no effect and 100 is complete control, read-out: Kochia plant response rating): 0%
pest or weed control at 125 g/ha ([1]; 125 g ai/ha, 0 to 100 scale (0 no effect, 100 complete control), read-out: Plant response rating, Kochia): 50%
pest or weed control at 31 g/ha ([2]; 31 g ai/ha, 0 to 100 scale where 0 is no effect and 100 is complete control, read-out: Barnyardgrass plant response rating): 90%
pest or weed control at 125 g/ha ([2]; 125 g ai/ha, 0 to 100 scale (0 no effect, 100 complete control), read-out: Plant response rating, Barnyardgrass): 90%
pest or weed control at 31 g/ha ([3]; 31 g ai/ha, 0 to 100 scale where 0 is no effect and 100 is complete control, read-out: Foxtail, Giant plant response rating): 80%
pest or weed control at 125 g/ha ([3]; 125 g ai/ha, 0 to 100 scale (0 no effect, 100 complete control), read-out: Plant response rating, Foxtail, Giant): 90%
pest or weed control at 31 g/ha ([4]; 31 g ai/ha, 0 to 100 scale where 0 is no effect and 100 is complete control, read-out: Pigweed plant response rating): 0%
pest or weed control at 125 g/ha ([4]; 125 g ai/ha, 0 to 100 scale (0 no effect, 100 complete control), read-out: Plant response rating, Pigweed): 0%
pest or weed control at 31 g/ha ([5]; 31 g ai/ha, 0 to 100 scale where 0 is no effect and 100 is complete control, read-out: Ragweed plant response rating): 0%
pest or weed control at 125 g/ha ([5]; 125 g ai/ha, 0 to 100 scale (0 no effect, 100 complete control), read-out: Plant response rating, Ragweed): 0%
pest or weed control at 31 g/ha ([6]; 31 g ai/ha, 0 to 100 scale where 0 is no effect and 100 is complete control, read-out: Ryegrass, Italian plant response rating): 0%
pest or weed control at 125 g/ha ([6]; 125 g ai/ha, 0 to 100 scale (0 no effect, 100 complete control), read-out: Plant response rating, Ryegrass, Italian): 20%
pest or weed control at 125 g/ha [7, 21]: 50%
pest or weed control at 31 g/ha [7, 22]: 30%
pest or weed control at 125 g/ha [8, 21]: 20%
pest or weed control at 31 g/ha [8, 22]: 0%
pest or weed control at 125 g/ha ([9]; 125 g ai/ha, visual rating about 10 d after treatment, read-out: Barnyardgrass plant response rating (0 to 100 scale, 0 no effect, 100 complete control)): 90%
pest or weed control at 31 g/ha ([9]; 31 g ai/ha, 0 is no effect, 100 is complete control, read-out: Barnyardgrass plant response rating (0 to 100 scale)): 70%
pest or weed control at 125 g/ha [10, 21]: 0%
pest or weed control at 31 g/ha [10, 22]: 0%
plant injury at 125 g/ha [11, 21]: 0%
plant injury at 31 g/ha [11, 22]: 0%
pest or weed control at 125 g/ha [12, 21]: 80%
pest or weed control at 31 g/ha [12, 22]: 70%
pest or weed control at 125 g/ha [13, 21]: 30%
pest or weed control at 31 g/ha [13, 22]: 20%
pest or weed control at 125 g/ha [14, 21]: 20%
pest or weed control at 31 g/ha [14, 22]: 0%
pest or weed control at 125 g/ha [15, 21]: 0%
pest or weed control at 31 g/ha [15, 22]: 0%
plant injury at 125 g/ha [16, 21]: 0%
plant injury at 31 g/ha [16, 22]: 0%
pest or weed control at 250 g/ha [17]: 95%
pest or weed control at 250 g/ha [18]: 100%
pest or weed control at 250 g/ha [19]: 60%
pest or weed control at 250 g/ha [20]: 0%
